One may read the IC50 as the point on the concentration scale where inhibition reaches its midpoint.

The values below come from patent US20160368919A1, “NOVEL PYRIDINE PYRAZINONES AS BET-FAMILY BROMODOMAIN INHIBITORS” (Pfizer Inc., priority 2015, published 2016).

Holding throughout (format): cell-based
The test system of assay [1] is LPS-induced IL-6 production in human whole blood. The experiment in a line: IL-6 human whole blood (HWB) assay, LPS-stimulated, HTRF detection. The following applies: 1 ng/ml LPS, 4 hours.
The subject of a further assay is OPM-2 cells. The experiment in a line: OPM-2 cell proliferation assay (CellTiter-Glo). The procedure: (§1) MM1.S (dexamethasone sensitive) and OPM-2 cells were purchased from ATCC and maintained in RPMI-1640 medium with 10% fetal bovine serum at 37 degrees, 5% CO2. Cells were seeded at 10,000 cells/well in 100 uL medium. The following day compounds or control vehicle (DMSO) were added at indicated concentrations in 10 ul volume. Compound treated OPM-2 cells and MM1.S cell were analyzed for cell density at 72h and 96h, respectively, using CellTiter-Glo® (CTG) reagent (Promega). The CTG assay measures the amount of ATP present, which indicates the number of viable cells in culture.
In general terms: Cellular ATP, detected with luciferase, serves as a proxy for viable cell number.

The subject of assay [2] is MYC, SOX2, involucrin and Keratin 14 expression in HCC2429 cells. The experiment in a line: Biomarker analysis in HCC2429 cells (RT-PCR, Western blot). The procedure:
HCC2429 cells were plated into a 6-well plate (250,000 cells/well). Cells were treated with compounds or control vehicle (DMSO) at the indicated concentrations for 72 hrs. Cells were collected, washed in PBS, and split for western blot and RNA analysis.

Assay [3] relates to CRPC cell lines (LnCaP, C4-2, C4-2AR-WT, C4-2AR-F876L, DU-145). The experiment in a line: CRPC cell proliferation assay, summary over the cell lines. The following applies: AR(+) cell lines, CTG at 96h. The procedure: Castrate-Resistant Prostate Cancer (CRPC) Cell Proliferation Assay • Cells were seeded into 96-well plates at 2,000-10,000 cells/well in 100 uL medium. Four AR(+) cell lines (LnCaP, C4-2 (parental), C4-2AR-WT and C4-2AR—F876L) and one AR(−) cell line (DU-145) were studied. Compound treated cells were analyzed for cell density at 96h, using CellTiter-Glo® (CTG) reagent (Promega). […] Example 10 and IBET-151 BET had submicromolar IC50 values in the AR(+) cell lines. The inhibitors maintained potency in C4-2 cells engineered to express wild type (WT) AR receptor (C4-2-AR-WT), as well as cells engineered to express the F876L mutation (C4-2-AR-F876L) that confers resistance to androgen receptor (AR) antagonists.

A further assay has as its system MM1.S cells. Kind of assay: MM1.S cell proliferation assay (CellTiter-Glo). The procedure:
as §1

In another assay the test system is LnCaP cells, AR(+). The experiment in a line: CRPC cell proliferation assay (CellTiter-Glo), LnCaP. The following applies: CTG at 96h. The procedure:
Castrate-Resistant Prostate Cancer (CRPC) Cell Proliferation Assay • Cells were seeded into 96-well plates at 2,000-10,000 cells/well in 100 uL medium. Four AR(+) cell lines (LnCaP, C4-2 (parental), C4-2AR-WT and C4-2AR—F876L) and one AR(−) cell line (DU-145) were studied. Compound treated cells were analyzed for cell density at 96h, using CellTiter-Glo® (CTG) reagent (Promega).

The mark [4] stands for this setting: HCC2429, Western blot, 72 hrs, concentration-dependent.

`CCC(=O)N(C)c1ccc2nc(NCCC(=O)O)c(=O)n([C@@H](CC)c3ccccc3)c2n1` [Example 10, N-{6-[methyl(propanoyl)amino]-3-oxo-4-[(1S)-1-phenylpropyl]-3,4-dihydropyrido[2,3-b]pyrazin-2-yl}-beta-alanine]: the half-inhibitory concentration (IC50) in assay [1] turned out to be 530 nM; in the assay with OPM-2 cells (Homo sapiens, OPM-2, CTG at 72h), 6 nM; with MM1.S cells (Homo sapiens, MM1.S, CTG at 96h) it was 2 nM; in the assay on LnCaP cells, AR(+) (Homo sapiens) it was 320 nM. The “inhibition of proliferation of OPM-2 cells” value in the assay with OPM-2 cells (dose dependent manner, FIG. 1.B) is reported as “inhibited proliferation”. The “mRNA expression of involucrin” value in assay [2] (HCC2429, RT-PCR, 72 hours, 50 nM, 200 nM and 500 nM, dose dependent) was “increased”. The MYC protein level result in assay [2] (setting [4]) is “down-regulated”. For the same compound, the SOX2 protein level result in assay [2] (setting [4]) was “down-regulated”. Moreover, in assay [3], the “IC50 values in the AR(+) cell lines” value is reported as “submicromolar”. In the assay with MM1.S cells (dose dependent manner, FIG. 1.A), the “inhibition of proliferation of MM1.S cells” value was “inhibited proliferation”. In the assay with LnCaP cells, AR(+), the “Max % Inh” value came to 69%.
